Here are results for 1 compound from ChEMBL document CHEMBL1138595, “(+/-)-Nantenine analogs as antagonists at human 5-HT(2A) receptors: C1 and flexible congeners” (Bioorg Med Chem Lett, 2009).

Molecules are shown by their SMILES. pIC50: −log10 of the molar value.

For this experiment, the target named is 5-hydroxytryptamine receptor 2A (Homo sapiens, UniProt P28223). The experiment in a line: Antagonist activity at human 5HT2A receptor expressed in EC80 serotonin-stimulated CHOK1 cells by calcium mobilization assay. Format: functional, cell-based, CHO-K1. In general terms: Calcium flux is commonly read through the fluorescence of an indicator in the cells.
Sequence of 5-hydroxytryptamine receptor 2A (P28223 whole entry): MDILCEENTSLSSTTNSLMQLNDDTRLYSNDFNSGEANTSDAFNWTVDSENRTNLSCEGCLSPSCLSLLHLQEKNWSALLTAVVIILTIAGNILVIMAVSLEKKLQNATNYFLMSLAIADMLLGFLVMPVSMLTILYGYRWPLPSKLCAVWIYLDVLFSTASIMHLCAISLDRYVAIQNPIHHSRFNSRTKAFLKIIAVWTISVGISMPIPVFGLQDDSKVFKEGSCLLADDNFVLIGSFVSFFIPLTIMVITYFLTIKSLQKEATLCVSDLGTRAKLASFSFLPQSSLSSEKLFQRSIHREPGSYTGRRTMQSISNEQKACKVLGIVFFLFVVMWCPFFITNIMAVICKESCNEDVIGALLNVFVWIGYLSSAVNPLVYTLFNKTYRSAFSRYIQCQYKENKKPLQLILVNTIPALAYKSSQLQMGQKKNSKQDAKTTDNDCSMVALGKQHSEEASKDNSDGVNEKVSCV

A word on the pIC50: it is the IC50 on a negative log10 scale, so that one unit is a factor of ten. Turning to `COc1cc2c3c(c1OCc1ccccc1)-c1cc4c(cc1CC3N(C)CC2)OCO4` (stereo unspecified), the pIC50 was 5.34.
